Laboratory results from patent US9708314B2, “Heterocyclic amide compound” (NISSAN CHEMICAL INDUSTRIES, LTD., priority 2013, dated 2017).

Legend:
Type in all cases: in vivo
[1] = test system: Echinochloa oryzacola Vasing.; assay: Test Example 2: herbicidal activity, application during weed generation in submerged conditions; settings: Eighteenth Table
Text: (§1) 5 Herbicidal ratio of 90% or more (almost completely withered) 4 Herbicidal ratio of 70% or more and less than 90% 3 Herbicidal ratio of 40% or more and less than 70% 2 Herbicidal ratio of 20% or more and less than 40% 1 Herbicidal ratio of 5% or more and less than 20% 0 Herbicidal ratio of 5% or less (almost no effect) [Test Example 2] Herbicidal Activity Test by Application During Weed Generation in Submerged Conditions After alluvial soil was placed into 1/10000 are of Wagner pot, water was poured and mixed to form a submerged condition having a water depth of 4 cm. Seeds of Echinochloa oryzacola Vasing., Scirpus juncoides, and Monochoria vaginalis were sowed in a mixed manner in the above pot and the pot was placed in the greenhouse of 25° C. to 30° C. to grow the plants. When Echinochloa oryzacola Vasing., Scirpus juncoides, and Monochoria vaginalis were grown to one leaf stage to two leaf stage, the emulsion agent containing the compound of the present invention prepared in accordance with Formulation Example 2 was diluted with water so as to be a predetermined herbicide amount and the diluted compound was applied to the surface of the water. Three weeks after the herbicide application, effects on each plant were investigated in accordance with the criteria of Test Example 1. A: Echinochloa oryzicola Vasing., B: Scirpus juncoides, C: Monochoria vaginalis, D: Leptochloa chinensis, E: Cyperus difformis, F: Digitaria ciliaris, G: Setaria viridis, H: Echinochloa crus-galli var. crus-galli, I: Avena fatua, J: Alopecurus myosuroides, K: Lolium multiflorum Lam., L: Apera spica-venti., M: Abutilon theophrasti, N: Amaranthus retroflexus, O: Chenopodium album, P: Stellaria media, Q: Galium spurium, R: Veronica persica, a: transplanted Oryza sativa, b: directly sowed Oryza sativa, c: Zea mays, d: Glycine max, e: Triticum aestivum, f: Beta vulgaris ssp. vulgaris, and g: Brassica campestris L. The application herbicide amount (g/ha) means an amount that a concentration is adjusted so that, when an application amount is converted into per hectare (1 ha), the herbicide is applied by the number of grams (g) of the described value.

Scirpus juncoides = assay: as above; settings: Eighteenth Table
Text: as §1

Monochoria vaginalis = assay: as above; settings: Eighteenth Table
Text: as §1

[2] = test system: directly sowed Oryza sativa; assay: Test Example 3: effect on crop by application to foliage (Wagner pot, water depth 0.1-0.5 cm); settings: Nineteenth Table; for b (effect on crop grade): application to foliage
Outline: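 Greenhouse pot test, 25–30 °C, alluvial soil. Sown seedlings grown 14 days then sprayed on leaves and stems with emulsion diluted to target g/ha. Rating at 3 weeks, 0–5 scale (0 ≤5%, 5 ≥90%).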

[3] = test system: directly sowed Oryza sativa; assay: Test Example 4: effect on crop by application to foliage (diluvial soil, plastic box); settings: for d (directly sowed Oryza sativa) effect on crop: application to foliage, application herbicide amount 320 g/ha; for d: Application herbicide amount 320 g/ha, effect on crop
Outline: (§2)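 Plants were grown in sterilized diluvial soil in a greenhouse at 25-30° C for 14 days, then sprayed on stems and leaves with water-diluted emulsion formulation at set rates in g/ha. Weed control and crop injury were scored 3 weeks after treatment on a 0-5 herbicidal-ratio scale, from 0 (≤5%) to 5 (≥90%).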

Brassica campestris L. = assay: as above; settings: for g (Brassica campestris L.) effect on crop: application to foliage, application herbicide amount 320 g/ha; for g: Application herbicide amount 320 g/ha, effect on crop
Outline: as §2

[4] = test system: Beta vulgaris ssp. vulgaris; assay: as above; settings: for f (Beta vulgaris ssp. vulgaris) effect on crop: application to foliage, application herbicide amount 320 g/ha; for f: Application herbicide amount 320 g/ha, effect on crop
Outline: as §2

Triticum aestivum = assay: as above; settings: for e (Triticum aestivum) effect on crop: application to foliage, application herbicide amount 320 g/ha; for e: Application herbicide amount 320 g/ha, effect on crop
Outline: as §2

Glycine max = assay: as above; settings: for c (Glycine max) effect on crop: application to foliage, application herbicide amount 320 g/ha; for c: Application herbicide amount 320 g/ha, effect on crop
Outline: as §2

[5] = application herbicide amount 320 g/ha
[6] = application herbicide amount 288 g/ha
[7] = Application herbicide amount 288 g/ha, foliage application

Row | Compound | A (Echinochloa oryzicola Vasing.) herbicidal ratio grade [1, 5] | B (Scirpus juncoides) herbicidal ratio grade (Scirpus juncoides; [5]) | b (directly sowed Oryza sativa) effect on crop grade [2, 5] | d (directly sowed Oryza sativa) effect on crop [3] | g (Brassica campestris L.) effect on crop (Brassica campestris L.) | f (Beta vulgaris ssp. vulgaris) effect on crop [4] | e (Triticum aestivum) effect on crop (Triticum aestivum) | c (Glycine max) effect on crop (Glycine max) | b (effect on crop grade) [2, 5] | d [3] | g (Brassica campestris L.) | f [4] | e (Triticum aestivum) | c (Glycine max) | also measured
1 | Cc1nnc(NC(=O)c2ccc(C(F)(F)F)n3cnnc23)o1 [1-001] | 4 (Herbicidal ratio of 70% or more and less than 90%) | 4 (Herbicidal ratio of 70% or more and less than 90%) | 0 (Herbicidal ratio of 5% or less (almost no effect)) | 3 (Herbicidal ratio of 40% or more and less than 70%) | 4 (Herbicidal ratio of 70% or more and less than 90%) | 4 (Herbicidal ratio of 70% or more and less than 90%) | 1 (Herbicidal ratio of 5% or more and less than 20%) | 0 (Herbicidal ratio of 5% or less (almost no effect)) | – | – | – | – | – | – | C (Monochoria vaginalis) herbicidal ratio grade (Monochoria vaginalis; [5]): 2 (Herbicidal ratio of 20% or more and less than 40%)
2 | Cc1nnc(NC(=O)c2ccc(C(F)(F)F)n3c(CS(C)(=O)=O)nnc23)o1 [1-037] | 2 (Herbicidal ratio of 20% or more and less than 40%) | 2 (Herbicidal ratio of 20% or more and less than 40%) | 2 (Herbicidal ratio of 20% or more and less than 40%) | 3 (Herbicidal ratio of 40% or more and less than 70%) | 4 (Herbicidal ratio of 70% or more and less than 90%) | 5 (Herbicidal ratio of 90% or more (almost completely withered)) | 3 (Herbicidal ratio of 40% or more and less than 70%) | 1 (Herbicidal ratio of 5% or more and less than 20%) | – | – | – | – | – | – | –
3 | Cc1nnc(NC(=O)c2ccc(C(F)(F)F)n3c(S(C)(=O)=O)nnc23)o1 [1-040] | 3 (Herbicidal ratio of 40% or more and less than 70%) | 2 (Herbicidal ratio of 20% or more and less than 40%) | 3 (Herbicidal ratio of 40% or more and less than 70%) | 1 (Herbicidal ratio of 5% or more and less than 20%) | 1 (Herbicidal ratio of 5% or more and less than 20%) | 5 (Herbicidal ratio of 90% or more (almost completely withered)) | 3 (Herbicidal ratio of 40% or more and less than 70%) | 0 (Herbicidal ratio of 5% or less (almost no effect)) | – | – | – | – | – | – | –
4 | CCS(=O)(=O)c1nnc2c(C(=O)Nc3nnc(C)o3)ccc(C(F)(F)F)n12 [1-041] | 2 (Herbicidal ratio of 20% or more and less than 40%) | 3 (Herbicidal ratio of 40% or more and less than 70%) | 2 (Herbicidal ratio of 20% or more and less than 40%) | 2 (Herbicidal ratio of 20% or more and less than 40%) | 0 (Herbicidal ratio of 5% or less (almost no effect)) | 5 (Herbicidal ratio of 90% or more (almost completely withered)) | 3 (Herbicidal ratio of 40% or more and less than 70%) | 0 (Herbicidal ratio of 5% or less (almost no effect)) | – | – | – | – | – | – | –
5 | COc1cccc(-c2nnc3c(C(=O)Nc4nnc(C)o4)ccc(C(F)(F)F)n23)c1 [1-046] | 4 (Herbicidal ratio of 70% or more and less than 90%) | – | 3 (Herbicidal ratio of 40% or more and less than 70%) | 3 (Herbicidal ratio of 40% or more and less than 70%) | 4 (Herbicidal ratio of 70% or more and less than 90%) | 5 (Herbicidal ratio of 90% or more (almost completely withered)) | 0 (Herbicidal ratio of 5% or less (almost no effect)) | 2 (Herbicidal ratio of 20% or more and less than 40%) | – | – | – | – | – | – | –
6 | Cc1nnc(NC(=O)c2ccc(C(F)(F)F)n3c(CO)nnc23)o1 [1-067] | – | – | – | – | – | – | – | – | 2 (Herbicidal ratio of 20% or more and less than 40%) | 3 (Herbicidal ratio of 40% or more and less than 70%) | 4 (Herbicidal ratio of 70% or more and less than 90%) | 4 (Herbicidal ratio of 70% or more and less than 90%) | 0 (Herbicidal ratio of 5% or less (almost no effect)) | 0 (Herbicidal ratio of 5% or less (almost no effect)) | –
7 | Cc1nnc(NC(=O)c2cc(C)c(C(F)(F)F)n3c(C(C)C)nnc23)o1 [1-075] | – | – | – | – | – | – | – | – | 1 (Herbicidal ratio of 5% or more and less than 20%) | 0 (Herbicidal ratio of 5% or less (almost no effect)) | 1 (Herbicidal ratio of 5% or more and less than 20%) | 1 (Herbicidal ratio of 5% or more and less than 20%) | 0 (Herbicidal ratio of 5% or less (almost no effect)) | 0 (Herbicidal ratio of 5% or less (almost no effect)) | –
8 | C#CC[S+]([O-])c1nnc2c(C(=O)Nc3nnc(C)o3)ccc(C(F)(F)F)n12 (stereo not shown) [1-077] | – | – | – | – | – | – | – | – | 0 (Herbicidal ratio of 5% or less (almost no effect)) | 3 (Herbicidal ratio of 40% or more and less than 70%) | 3 (Herbicidal ratio of 40% or more and less than 70%) | 3 (Herbicidal ratio of 40% or more and less than 70%) | 0 (Herbicidal ratio of 5% or less (almost no effect)) | 0 (Herbicidal ratio of 5% or less (almost no effect)) | –
9 | Cc1nnc(NC(=O)c2ccc(C(F)(F)F)n3c(Nc4ccccc4)nnc23)o1 [1-082] | – | – | – | – | – | – | – | – | 0 (Herbicidal ratio of 5% or less (almost no effect)) | 3 (Herbicidal ratio of 40% or more and less than 70%) | 0 (Herbicidal ratio of 5% or less (almost no effect)) | – | 0 (Herbicidal ratio of 5% or less (almost no effect)) | 0 (Herbicidal ratio of 5% or less (almost no effect)) | –
10 | CCCSc1nnc2c(C(=O)Nc3nnc(C)o3)ccc(C(F)(F)F)n12 [1-087] | 4 (Herbicidal ratio of 70% or more and less than 90%) | – | – | – | – | – | – | – | 1 (Herbicidal ratio of 5% or more and less than 20%) | 4 (Herbicidal ratio of 70% or more and less than 90%) | 4 (Herbicidal ratio of 70% or more and less than 90%) | 5 (Herbicidal ratio of 90% or more (almost completely withered)) | 2 (Herbicidal ratio of 20% or more and less than 40%) | 4 (Herbicidal ratio of 70% or more and less than 90%) | C (Monochoria vaginalis) herbicidal ratio grade (Monochoria vaginalis; [5]): 3 (Herbicidal ratio of 40% or more and less than 70%)
11 | C=CCSc1nnc2c(C(=O)Nc3nnco3)ccc(C(F)(F)F)n12 [1-128] | – | – | – | – | – | – | – | – | – | – | – | – | – | – | A (Echinochloa oryzicola Vasing.) herbicidal ratio grade [1, 6]: 1 (Herbicidal ratio of 5% or more and less than 20%); B (Scirpus juncoides) herbicidal ratio grade (Scirpus juncoides; [6]): 3 (Herbicidal ratio of 40% or more and less than 70%); C (Monochoria vaginalis) herbicidal ratio grade (Monochoria vaginalis; [6]): 0 (Herbicidal ratio of 5% or less (almost no effect)); b (effect on crop grade) [2, 6]: 0 (Herbicidal ratio of 5% or less (almost no effect)); g (Brassica campestris L.) effect on crop grade (Brassica campestris L.; [7]): 3 (Herbicidal ratio of 40% or more and less than 70%); f (Beta vulgaris ssp. vulgaris) effect on crop grade [4, 7]: 5 (Herbicidal ratio of 90% or more (almost completely withered)); e (Triticum aestivum) effect on crop grade (Triticum aestivum; [7]): 1 (Herbicidal ratio of 5% or more and less than 20%); d (Glycine max) effect on crop grade (Glycine max; [7]): 3 (Herbicidal ratio of 40% or more and less than 70%)
